Assay results from ChEMBL document CHEMBL1201862, “PubChem BioAssay data set” (2004).
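Cells were grown in 96-well plates and exposed to each compound for 48 hours at five concentrations; endpoints were interpolated linearly between bracketing concentrations, or set to the highest concentration if not reached. The concentration for 50% growth inhibition is given as GI50.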 The source made the active and inactive calls. Rule as the data show it: active = GI50 up to about 1.1 µM and inactive = higher.

Columns and labels:
Assay in all cases: NCI-60 cell line screen, 48 h
SR = test system: SR
T47D = test system: T47D
UACC-62 = test system: UACC-62
UO-31 = test system: UO-31
SF-295 = test system: SF-295
SW-620 = test system: SW-620
RPMI-8226 = test system: RPMI-8226
KM12 = test system: KM12
NCI-H522 = test system: NCI-H522
SN12C = test system: SN12C
SF-268 = test system: SF-268
MOLT-4 = test system: MOLT-4
Malme-3M = test system: Malme-3M
A498 = test system: A498
NCI-H23 = test system: NCI-H23
EKVX = test system: EKVX
TK-10 = test system: TK-10
HCT-15 = test system: HCT-15
786-0 = test system: 786-0
DU-145 = test system: DU-145

Compound	GI50 (SR)	GI50 (T47D)	GI50 (UACC-62)	GI50 (UO-31)	GI50 (SF-295)	GI50 (SW-620)	GI50 (RPMI-8226)	GI50 (KM12)	GI50 (NCI-H522)	GI50 (SN12C)	GI50 (SF-268)	GI50 (MOLT-4)	GI50 (Malme-3M)	GI50 (A498)	GI50 (NCI-H23)	GI50 (EKVX)	GI50 (TK-10)	GI50 (HCT-15) [µM]	GI50 (786-0)	GI50 (DU-145)
CN(CC(=O)O)Cc1oc(CO)cc(=O)c1O	> 100 µM (inactive)	> 100 µM (inactive)	> 100 µM (inactive)	> 100 µM (inactive)	> 100 µM (inactive)	> 100 µM (inactive)	> 100 µM (inactive)	> 100 µM (inactive)	> 100 µM (inactive)	> 100 µM (inactive)	> 100 µM (inactive)	> 100 µM (inactive)	> 100 µM (inactive)	> 100 µM (inactive)	> 100 µM (inactive)	> 100 µM (inactive)	> 100 µM (inactive)	> 100	> 100 µM (inactive)	–
O=c1ccc2ccccc2c2ccccc12	1.52 µM (inactive)	–	2.27 µM (inactive)	3.81 µM (inactive)	3.61 µM (inactive)	3.3 µM (inactive)	2.23 µM (inactive)	2.58 µM (inactive)	4.37 µM (inactive)	2.46 µM (inactive)	2.79 µM (inactive)	3.78 µM (inactive)	10.4 µM (inactive)	22.7 µM (inactive)	2.83 µM (inactive)	17.3 µM (inactive)	14.5 µM (inactive)	1.87	2.77 µM (inactive)	–
COc1ccc(C2CC(C)=Nc3c(O)nc(S)nc3N2)cc1 (stereo not drawn)	25.6 µM (inactive)	–	17.4 µM (inactive)	17.9 µM (inactive)	22 µM (inactive)	5.27 µM (inactive)	22.3 µM (inactive)	17.4 µM (inactive)	16.3 µM (inactive)	19.4 µM (inactive)	37.7 µM (inactive)	23.1 µM (inactive)	> 100 µM (inactive)	19.2 µM (inactive)	30.5 µM (inactive)	22.1 µM (inactive)	20.8 µM (inactive)	16.3	17.1 µM (inactive)	–
O=C1C(c2ccccc2)=C(c2ccccc2)C(c2ccc(-c3ccc(C4=C(c5ccccc5)C(=O)C(c5ccccc5)=C4c4ccccc4)cc3)cc2)=C1c1ccccc1	> 100 µM (inactive)	–	> 100 µM (inactive)	> 100 µM (inactive)	> 100 µM (inactive)	> 100 µM (inactive)	46.9 µM (inactive)	> 100 µM (inactive)	> 100 µM (inactive)	> 100 µM (inactive)	> 100 µM (inactive)	77.8 µM (inactive)	> 100 µM (inactive)	> 100 µM (inactive)	> 100 µM (inactive)	> 100 µM (inactive)	> 100 µM (inactive)	> 100	> 100 µM (inactive)	–
CC(=O)Oc1c(OC(C)C)cc(=O)n2ccsc12	–	–	> 100 µM (inactive)	> 100 µM (inactive)	> 100 µM (inactive)	82 µM (inactive)	29.4 µM (inactive)	> 100 µM (inactive)	42.2 µM (inactive)	> 100 µM (inactive)	> 100 µM (inactive)	43.9 µM (inactive)	> 100 µM (inactive)	> 100 µM (inactive)	> 100 µM (inactive)	> 100 µM (inactive)	> 100 µM (inactive)	> 100	> 100 µM (inactive)	> 100 µM (inactive)
CN1CCOC(c2ccccc2)O1 (stereo not drawn)	> 100 µM (inactive)	–	> 100 µM (inactive)	> 100 µM (inactive)	> 100 µM (inactive)	> 100 µM (inactive)	> 100 µM (inactive)	> 100 µM (inactive)	> 100 µM (inactive)	> 100 µM (inactive)	> 100 µM (inactive)	> 100 µM (inactive)	> 100 µM (inactive)	> 100 µM (inactive)	> 100 µM (inactive)	> 100 µM (inactive)	> 100 µM (inactive)	> 100	> 100 µM (inactive)	–
CC1OC(CC(=O)O)Cc2c(O)c3c(c(O)c21)C(=O)C=C(C1=CC(=O)c2c(O)c4c(c(O)c2C1=O)CC(CC(=O)O)OC4C)C3=O (stereo not drawn)	3.69 µM (inactive)	–	12.8 µM (inactive)	47.2 µM (inactive)	88.7 µM (inactive)	7.4 µM (inactive)	12.4 µM (inactive)	39.1 µM (inactive)	6.25 µM (inactive)	16.6 µM (inactive)	32 µM (inactive)	2.69 µM (inactive)	14.5 µM (inactive)	18.9 µM (inactive)	17.6 µM (inactive)	13.5 µM (inactive)	57.9 µM (inactive)	11.6	21.4 µM (inactive)	–
C=CC[C@H]1O[Si](C(C)(C)C)(C(C)(C)C)[C@H](C)[C@H]1C	59.6 µM (inactive)	> 100 µM (inactive)	> 100 µM (inactive)	> 100 µM (inactive)	> 100 µM (inactive)	> 100 µM (inactive)	> 10 µM (inactive)	> 100 µM (inactive)	> 100 µM (inactive)	> 100 µM (inactive)	–	> 100 µM (inactive)	20.3 µM (inactive)	> 100 µM (inactive)	> 100 µM (inactive)	> 100 µM (inactive)	> 100 µM (inactive)	> 100	> 100 µM (inactive)	–
COC(=O)c1c(O)ccc2c1c1c(n2Cc2cc(OC)cc(OC)c2)C(=O)c2ccccc2C1	13 µM (inactive)	–	49.2 µM (inactive)	63.4 µM (inactive)	52.6 µM (inactive)	51.8 µM (inactive)	7.82 µM (inactive)	43.3 µM (inactive)	–	29.5 µM (inactive)	31.1 µM (inactive)	58.1 µM (inactive)	68.5 µM (inactive)	92.3 µM (inactive)	58.1 µM (inactive)	–	52 µM (inactive)	32.1	92 µM (inactive)	53.3 µM (inactive)
COC[C@@H]1[C@H]2OC(C)(C)O[C@H]2C(=O)N1C(=O)c1ccc(OC)cc1	> 100 µM (inactive)	–	> 100 µM (inactive)	> 100 µM (inactive)	> 100 µM (inactive)	> 100 µM (inactive)	> 100 µM (inactive)	> 100 µM (inactive)	> 71.8 µM (inactive)	> 100 µM (inactive)	> 100 µM (inactive)	> 100 µM (inactive)	> 100 µM (inactive)	> 100 µM (inactive)	> 100 µM (inactive)	> 100 µM (inactive)	> 100 µM (inactive)	> 100	> 100 µM (inactive)	–
O=S(=O)(SC1=NCCN1)c1cccc2ccccc12	> 10 µM (inactive)	–	34.4 µM (inactive)	35.9 µM (inactive)	24.1 µM (inactive)	32.7 µM (inactive)	19.1 µM (inactive)	17.9 µM (inactive)	14.4 µM (inactive)	23 µM (inactive)	–	27.7 µM (inactive)	32 µM (inactive)	26.1 µM (inactive)	28.4 µM (inactive)	30.1 µM (inactive)	–	35.3	25.4 µM (inactive)	29.6 µM (inactive)
COc1ccc(C2COc3c(ccc(OC)c3OC)C2=O)cc1OC (stereo not drawn)	> 100 µM (inactive)	–	> 100 µM (inactive)	> 100 µM (inactive)	> 100 µM (inactive)	> 100 µM (inactive)	> 100 µM (inactive)	> 100 µM (inactive)	> 100 µM (inactive)	> 100 µM (inactive)	> 100 µM (inactive)	> 100 µM (inactive)	> 100 µM (inactive)	> 100 µM (inactive)	> 100 µM (inactive)	> 100 µM (inactive)	> 100 µM (inactive)	–	> 100 µM (inactive)	–
COc1cc(C2S/C(=C/c3ccccc3)C(=O)N2c2cccc([N+](=O)[O-])c2)cc(OC)c1OC (stereo not drawn)	46.6 µM (inactive)	0.156 µM (active)	65.9 µM (inactive)	94.6 µM (inactive)	50.1 µM (inactive)	–	–	28.8 µM (inactive)	38.5 µM (inactive)	> 100 µM (inactive)	76.2 µM (inactive)	70.3 µM (inactive)	> 100 µM (inactive)	> 100 µM (inactive)	> 100 µM (inactive)	50 µM (inactive)	> 100 µM (inactive)	71.9	51.4 µM (inactive)	–
Oc1ccc(N=C2CCC(=C(c3ccccc3)c3ccc(Nc4ccc(O)cc4)cc3)CC2)cc1	19.7 µM (inactive)	–	55.8 µM (inactive)	57.4 µM (inactive)	> 100 µM (inactive)	58.1 µM (inactive)	46.1 µM (inactive)	32.4 µM (inactive)	47 µM (inactive)	54.6 µM (inactive)	50.9 µM (inactive)	83.6 µM (inactive)	–	> 100 µM (inactive)	62.7 µM (inactive)	–	> 100 µM (inactive)	> 100	78.7 µM (inactive)	60.8 µM (inactive)
CN(C)CCN(C)CC1COC(C)(C)O1 (stereo not drawn)	> 100 µM (inactive)	–	> 100 µM (inactive)	> 100 µM (inactive)	> 100 µM (inactive)	> 100 µM (inactive)	> 100 µM (inactive)	> 100 µM (inactive)	> 100 µM (inactive)	> 100 µM (inactive)	> 100 µM (inactive)	> 100 µM (inactive)	> 100 µM (inactive)	> 100 µM (inactive)	> 100 µM (inactive)	> 100 µM (inactive)	> 100 µM (inactive)	–	> 100 µM (inactive)	–
O=C(N/N=C/c1cc(Cl)cc(Cl)c1O)c1ccncc1	39.1 µM (inactive)	–	63 µM (inactive)	71.1 µM (inactive)	60.1 µM (inactive)	> 100 µM (inactive)	> 100 µM (inactive)	> 100 µM (inactive)	> 100 µM (inactive)	> 100 µM (inactive)	> 100 µM (inactive)	36.9 µM (inactive)	> 100 µM (inactive)	> 100 µM (inactive)	78.9 µM (inactive)	22 µM (inactive)	> 100 µM (inactive)	29.7	57.9 µM (inactive)	–
